Data taken from patent publication US11406714B2, “Telodendrimers and nanocarriers and methods of using same” (The Research Foundation for the State University of New York, priority 2013, dated 2022).
Entries after “also recorded” stand apart in the source; their conditions may differ.

Tests used:
[1] = Maximum tolerated dose (MTD) study; format: in vivo
Method: FIG. 24. An example of body weight lost for an animal treated with DOX loaded PEG^5kCA4-L-Rh4 at different dosage level, as well as the empty micelles for the test of the MTD studies. Among, the 15 mg/Kg dosage was repeated at day 0 and day 4 to study the MTD of multiple dosages.

[2] = system: Raji lymphoma xenograft; assay: In vivo cancer treatment; design: species or system nude mice; details: 10 mg/kg, days 0, 4 and 8, intravenous
Method: (§1) Female athymic nude mice (Nu/Nu strain), 6-8 weeks age, were purchased from Harlan. All animals were kept under pathogen-free conditions according to AAALAC (Association for Assessment and Accreditation of Laboratory Animal Care) guidelines and were allowed to acclimatize for at least 4 days prior to any experiments. All animal experiments were performed in compliance with institutional guidelines and according to protocol approved by the Committee for the Humane Use of Animals of State University of New York Upstate Medical University. Subcutaneous tumor xenograft mouse models were established by injecting 1×10^7 HT-29 or raji cancer cells in a 100 μL of mixture of PBS and Matrigel (1:1 v/v) subcutaneously at the right flank in female nude mice.
Subcutaneous Raji lymphoma xenograft mouse model was used to evaluate the therapeutic efficacy of different formulations of DOX. […] Tumor sizes were measured with a digital caliper twice per week. Tumor volume was calculated by the formula (L×W^2)/2, where L is the longest, and W is the shortest in tumor diameters (mm). To compare between groups, relative tumor volume (RTV) was calculated at each measurement time point (where RTV equals the tumor volume at given time point divided by the tumor volume prior to initial treatment). […]

[3] = system: Raji lymphoma xenograft; assay: In vivo and ex vivo NIRF imaging and biodistribution; design: species or system nude mice; details: tail vein injection
Method: as §1
(§2) Nude mice with subcutaneous tumors of an approximate 8 to 10 mm in diameter were subjected to in vivo NIRF optical imaging. At different time points post-injection of DiD and chemodrug (PTX or DOX or GA) co-loaded micelles (the mass ratio of DiD and PTX within nanocarrier was […]), mice were scanned using a IVIS-200 small animal imager at cy5.5 excitation and emission channels. The mice were anaesthetized by isofluorane gas before and during each imaging. After in vivo imaging, animals were euthanized by CO2 overdose after the last in vivo imaging. Tumors and major organs were excised and imaged with the IVIS-200 small animal imager.

[4] = system: HT-29 colon cancer xenografts; assay: as above; design: species or system nude mice
Method: as §1, §2

SMILES	MTD of free DOX [1] [mg/kg]	Tumor response [2]	Biodistribution of fluorescence signal [3]	Ex vivo biodistribution of fluorescence signal ([4]; after last in vivo imaging)	In vivo tumor targeting (fluorescence imaging) ([4]; tail vein injection, DiD signal)
COc1cccc2c1C(=O)c1c(O)c3c(c(O)c1C2=O)C[C@@](O)(C(=O)CO)C[C@@H]3O[C@H]1C[C@H](N)[C@H](O)[C@H](C)O1 [DOX, Doxorubicin]	10	the cancer progression was slowed down	–	–	–
CCCCCCCCCCCCCCCCCCN1C(=CC=CC=CC2=[N+](CCCCCCCCCCCCCCCCCC)c3ccccc3C2(C)C)C(C)(C)c2ccccc21.[O-][Cl+3]([O-])([O-])[O-] [DiD, 1,1′-dioctadecyl-3,3,3′,3′-tetramethylindodicarbocyanine perchlorate]	–	–	high fluorescent uptake in the liver, lung and spleen and weak signal in the tumor	high uptake in liver, lung and spleen and low uptake in tumor; also recorded: high uptake of fluorescent signal in spleen and lung	nonspecific binding and low tumor uptake
